Laboratory results as given in PubChem BioAssay AID2021 (NMMLSC, 2009).
Active and inactive are the calls of the source. No rule for the calls is given here.

Target: Cell division control protein 42 homolog (Homo sapiens) (UniProt P60953)
Test: Cdc42 activated mutant GTP-binding inhibitors, SAR follow-up, biochemical, bead-based multiplex flow cytometry, additional SAR set (AID 2021)
Conditions: fluorescent GTP binding; for Ki: measured here: Ki derived from EC50

Chain of Cell division control protein 42 homolog (Homo sapiens) (P60953 whole entry, looked up): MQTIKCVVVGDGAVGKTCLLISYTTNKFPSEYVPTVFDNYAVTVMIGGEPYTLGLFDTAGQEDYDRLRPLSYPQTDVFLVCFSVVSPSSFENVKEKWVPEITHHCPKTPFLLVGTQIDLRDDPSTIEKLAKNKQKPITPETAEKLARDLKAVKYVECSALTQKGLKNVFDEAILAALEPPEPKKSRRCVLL

EC50	Ki	Compound
> 30 µM (inactive)		O=C1C(c2c(O)[nH]c3c(Cl)cccc23)=Nc2ccccc21
> 30 µM (inactive)		COC(=O)c1ccc(C(=O)C#Cc2ccccc2)cc1
> 30 µM (inactive)		COc1ccc(S(=O)(=O)n2c(N)c(C#N)c(-c3cc(Br)c(OC)c(OC)c3)c2C(=O)c2ccccc2)cc1
> 30 µM (inactive)		COc1ccc(S(=O)(=O)n2c(N)c(C#N)c(-c3ccccc3)c2C(=O)c2ccc(Br)cc2)cc1
> 30 µM (inactive)		O=C(C#Cc1ccccc1)c1ccc([N+](=O)[O-])cc1
> 30 µM (inactive)		O=C1C(c2c(O)[nH]c3c(Br)cccc23)=Nc2ccccc21
> 30 µM (inactive)		O=C(C#Cc1ccccc1)c1ccccc1[N+](=O)[O-]
13.7 µM	2.12 µM	O=[N+]([O-])c1ccc(C#Cc2ccccc2)cc1
> 30 µM (inactive)		CC1=C(CC(=O)O)c2cc(F)ccc2/C1=C/c1ccc(S(C)=O)cc1 (stereo not given)
> 30 µM (inactive)		O=C1C(c2c(O)[nH]c3ccccc23)=Nc2ccccc21
> 30 µM (inactive)		O=C(C#Cc1ccccc1)c1cccnc1
> 30 µM (inactive)		O=C1Nc2c(Br)cccc2/C1=C1/Cc2ccccc2C1=O
> 30 µM (inactive)		CC(C(=O)O)c1cccc(C(=O)c2ccccc2)c1 (stereo not given)
> 30 µM (inactive)		O=C1Nc2cccc(Br)c2/C1=C1/Cc2ccccc2C1=O
> 30 µM (inactive)		O=Nc1c(-c2c(O)[nH]c3ccccc23)[nH]c2ccccc12
> 30 µM (inactive)		COc1ccc2cc(CC(=O)O)ccc2c1
inactive	7.52 µM	CSc1ccc(/C=C2/C(C)=C(CC(=O)O)c3cc(F)ccc32)cc1
> 30 µM (inactive)		O=Nc1c(-c2c(O)[nH]c3ccc(Br)cc23)[nH]c2ccccc12
> 30 µM (inactive)		O=C1C(c2c(O)[nH]c3c(F)cccc23)=Nc2ccccc21
> 30 µM (inactive)		O=C1Nc2ccccc2/C1=C1/Cc2ccccc2C1=O

EC50	Ki	Compound
9.98 µM	1.54 µM	COc1ccc(S(=O)(=O)n2c(N)c(C#N)c(-c3cncc(Br)c3)c2C(=O)c2ccccc2)cc1
> 30 µM (inactive)		O=C(C#Cc1ccccc1)c1ccccc1
> 30 µM (inactive)		O=C1N=c2ccccc2=C1c1[nH]c(=S)[nH]c1O
inactive	0.81 µM	O=C1N=c2ccccc2=C1c1[nH]c(=O)[nH]c1O
> 30 µM (inactive)		N#Cc1ccc(C(=O)C#Cc2ccccc2)cc1
inactive	9.15 µM	O=C(C#Cc1ccccc1)c1ccc(F)cc1
inactive	0.93 µM	N#Cc1c(-c2ccc(Cl)cc2)c(C(=O)c2ccccc2)n(S(=O)(=O)c2ccc([N+](=O)[O-])cc2)c1N
> 30 µM (inactive)		CC(=O)Oc1ccccc1C(=O)O
> 30 µM (inactive)		COc1ccc(C(=O)C#Cc2ccccc2)cc1
inactive	8.52 µM	O=Nc1c(-c2c(O)[nH]c3c(Br)cccc23)[nH]c2ccccc12
inactive	0.99 µM	CC(C)Cc1ccc([C@H](C)C(=O)O)cc1
> 30 µM (inactive)		O=C1C(c2c(O)[nH]c3ccc(Br)cc23)=Nc2ccccc21
> 30 µM (inactive)		O=C(C#Cc1ccccc1)c1ccc(Cl)cc1
inactive	2.87 µM	COc1ccc(-c2c(C#N)c(N)n(S(C)(=O)=O)c2C(=O)c2ccccc2)cc1Br
> 30 µM (inactive)		CC(C(=O)O)c1cccc(Oc2ccccc2)c1 (stereo not given)
inactive	2.88 µM	CCCCS(=O)(=O)n1c(N)c(C#N)c(-c2cc(OC)c(OC)c(OC)c2)c1C(=O)c1ccccc1
> 30 µM (inactive)		COc1cc(-c2c(C#N)c(N)n(S(=O)(=O)c3c(C(C)C)cc(C(C)C)cc3C(C)C)c2C(=O)c2ccccc2)cc(OC)c1OC
> 30 µM (inactive)		O=Nc1c(-c2c(O)[nH]c3c(F)cccc23)[nH]c2ccccc12
> 30 µM (inactive)		O=C(C#Cc1ccccc1)c1ccc(OC(F)(F)F)cc1
> 30 µM (inactive)		O=Nc1c(-c2c(O)[nH]c3c(Cl)cccc23)[nH]c2ccccc12
